Counter-ions that a name gives are not always drawn.
target: IRAK4 (Homo sapiens (Human), UniProt Q9NWZ3); experiment: IRAK4 kinase activity, IMAP fluorescence polarization assay; format: biochemical; conditions: 100 μM ATP, 0.5 nM GST tagged IRAK4; read-out: IRAK4 IC50
Procedure: The kinase activity of IRAK4 is determined by its ability to catalyze the phosphorylation of a fluorescent polypeptide substrate. The extent of phosphorylation is measured using IMAP technology (Molecular Devices) where the phosphorylated fluorescent substrate binds to the large M(III)-based nanoparticles which reduces the rotational speed of the substrate and thus increases its fluorescent polarization (FP).
Assay Procedure: A 20 μl reaction mixture contains 10 mM TriHCl, pH 7.2, 0.5 nM GST tagged IRAK4 (SignalChem), 100 nM fluorescent peptide substrate (RP7030, Molecular Devices), 100 μM ATP, 1 mM DTT, 1 mM MgCl2, and 0.01% Tween 20. The reaction is initiated by the addition of ATP. After incubation for 30 minutes at 25° C., 60 μl of Progressive IMAP Reagent (Molecular Devices) is added to stop the reaction. Change in RP7030's FP is determined by a FP reader (Analyst HT, LJL BioSystems)

IRAK4, sequence (Q9NWZ3 whole entry): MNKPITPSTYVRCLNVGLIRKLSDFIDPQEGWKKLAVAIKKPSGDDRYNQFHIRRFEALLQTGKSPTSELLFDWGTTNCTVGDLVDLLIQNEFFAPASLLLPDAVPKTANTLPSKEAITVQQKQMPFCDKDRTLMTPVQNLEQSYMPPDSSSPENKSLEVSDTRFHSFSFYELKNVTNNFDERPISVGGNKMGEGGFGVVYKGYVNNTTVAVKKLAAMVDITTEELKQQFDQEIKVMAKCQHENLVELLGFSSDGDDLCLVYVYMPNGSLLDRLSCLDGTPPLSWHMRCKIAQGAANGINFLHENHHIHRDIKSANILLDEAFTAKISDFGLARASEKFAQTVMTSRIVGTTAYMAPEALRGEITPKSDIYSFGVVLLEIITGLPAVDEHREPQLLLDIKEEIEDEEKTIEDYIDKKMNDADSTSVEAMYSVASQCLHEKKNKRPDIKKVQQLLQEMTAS

Compared with `C[C@@H]1CC[C@@H](Nc2nc(N3CCOCC3)[nH]c(=O)c2-c2nc3ccccc3s2)CN1` (racemic) [Example 124, 5-(benzo[d]thiazol-2-yl)-6((6-methylpiperidin-3-yl)amino)-2-morpholinopyrimidin-4(3H)-one.HCl], `C[C@H]1C[C@@H](Nc2nc(N3CCOCC3)[nH]c(=O)c2-c2nc3ccccc3s2)[C@H](O)[C@@H]1O` [Example 47, 5-(Benzo[d]thiazol-2-yl)-6-((1R,2S,3R,4S)-2,3-dihydroxy-4-methylcyclopentylamino)-2-morpholinopyrimidin-4(3H)-one.HCl] is 5-fold lower in IC50: 0.114 µM for the first, 0.023 µM for the second.

In the case of `O=c1[nH]c(N2CCOCC2)nc(N[C@@H]2CCCNC2)c1-c1nc2c(C3CC3)nccc2s1` [Example 111, (R)-5-(4-cyclopropylthiazolo[4,5-c]pyridin-2-yl)-2-morpholino-6-(piperidin-3-ylamino)pyrimidin-4(3H)-one.HCl], the IC50 is reported as 0.009 µM.

same assay, conditions: 100 μM ATP; read-out: IC50

Going from `O=c1[nH]c(N2CCOCC2)nc(NCCN2CCCCC2)c1-c1nc2ccccc2s1` [Example 257, 5-(1,3-benzothiazol-2-yl)-2-(morpholin-4-yl)-6-[[2-(piperidin-1-yl)ethyl]amino]-3,4-dihydropyrimidin-4-one] to `O=c1[nH]c(N2CCOCC2)nc(N[C@H]2c3ccccc3C[C@H]2O)c1-c1nc2ccccc2s1` [Example 267, 5-(benzo[d]thiazol-2-yl)-6-((1S,2R)-2-hydroxy-2,3-dihydro-1H-inden-1-ylamino)-2-morpholinopyrimidin-4(3H)-one], the IC50 rises from 0.002 µM to 8.3 µM (4200-fold).

First: O=c1[nH]c(N2CCOCC2)nc(NCCNCCO)c1-c1ccc2ccccc2n1 [Example 273, 6-([2-[(2-hydroxyethyl)amino]ethyl]amino)-2-(morpholin-4-yl)-5-(quinolin-2-yl)-3,4-dihydropyrimidin-4-one]
Second: O=c1[nH]c(N2CCOCC2)nc(NC2CNC2)c1-c1ccc2ccccc2n1 [Example 275, 6-[(azetidin-3-yl)amino]-2-(morpholin-4-yl)-5-(quinolin-2-yl)-3,4-dihydropyrimidin-4-one]
The IC50 of the first is 4.5-fold higher: 0.67 µM for the first, 0.15 µM for the second.

Compared with `O=c1[nH]c(N2CCC3(CCN(c4ncccn4)C3)C2)nc(N[C@@H]2CCCNC2)c1-c1nc2ccccc2s1` (stereo partly drawn) [Example 324, 5-(1,3-benzothiazol-2-yl)-6-[[(3R)-piperidin-3-yl]amino]-2-[7-(pyrimidin-2-yl)-2,7-diazaspiro[4.4]nonan-2-yl]-3,4-dihydropyrimidin-4-one trifluoroacetic acid], `O=c1[nH]c(N2CCN(c3ncccn3)CC2)nc(N[C@@H]2CCCNC2)c1-c1nc(-c2ccc(F)cc2)cs1` [Example 350, 5-[4-(4-fluorophenyl)-1,3-thiazol-2-yl]-6-[[(3R)-piperidin-3-yl]amino]-2-[4-(pyrimidin-2-yl)piperazin-1-yl]-3,4-dihydropyrimidin-4-one; trifluoroacetic acid] is 1.8-fold higher in IC50: 0.012 µM for the first, 0.021 µM for the second.

Compared with `O=C1C[C@@H](Nc2nc(N[C@@H]3CCCNC3)c(-c3nc4ccccc4s3)c(=O)[nH]2)Cc2ccccc2N1` [Example 303, (S)-4-(5-(benzo[d]thiazol-2-yl)-6-oxo-4-((R)-piperidin-3-ylamino)-1,6-dihydropyrimidin-2-ylamino)-4,5-dihydro-1H-benzo[b]azepin-2(3H)-one], `O=c1[nH]c(N[C@@H]2c3ccccc3C[C@@H]2O)nc(N[C@@H]2CCCNC2)c1-c1nc2ccccc2s1` [Example 299, 5-(1,3-benzothiazol-2-yl)-2-[[(1R,2S)-2-hydroxy-2,3-dihydro-1H-inden-1-yl]amino]-6-[[(3R)-piperidin-3-yl]amino]pyrimidin-4-ol formic acid] is 4.9-fold lower in IC50: 5.9 µM for the first, 1.2 µM for the second.

Compared with `O=c1[nH]c(N2CCOCC2)nc(NCC2CCCCN2)c1-c1ccc2ccccc2n1` (stereo not shown) [Example 276, 2-morpholino-6-(piperidin-2-ylmethylamino)-5-(quinolin-2-yl)pyrimidin-4(3H)-one], `O=c1[nH]c(C2CCN(S(=O)(=O)C3CC3)CC2)nc(N[C@@H]2CCCNC2)c1-c1nc2ccccc2s1` [Example 238, (R)-5-(1,3-benzothiazol-2-yl) 2-[1-(cyclopropane-sulfonyl)piperidin-4-yl]-6-[(piperidin-3-yl)amino]-3,4-dihydropyrimidin-4-one] is 2-fold lower in IC50: 0.34 µM for the first, 0.17 µM for the second. The second is the more potent here.

same assay, conditions: 100 μM ATP; read-out: IRAK4 IC50

`COc1ccccc1C1CCN(c2nc(N[C@@H]3CCCNC3)c(-c3ccc4ccccc4n3)c(=O)[nH]2)CC1` [Example 189, (R)-2-(4-(2-methoxyphenyl)piperidin-1-yl)-6-(piperidin-3-ylamino)-5-(quinolin-2-yl)pyrimidin-4(3H)-one] and `Cc1ccccc1C1CCN(c2nc(N[C@@H]3CCCNC3)c(-c3ccc4ccccc4n3)c(=O)[nH]2)CC1` [Example 188, (R)-6-(piperidin-3-ylamino)-5-(quinolin-2-yl)-2-(4-(o-tolyl)piperidin-1-yl)pyrimidin-4(3H)-one] are within 1.5-fold of each other in IC50: 0.013 µM for the first, 0.017 µM for the second.

Going from `O=c1[nH]c(N2CCn3cc(C(F)(F)F)nc3C2)nc(N[C@@H]2CCCNC2)c1-c1nc2ccccc2s1` [Example 140, (R)-5-(benzo[d]thiazol-2-yl)-6-(piperidin-3-ylamino)-2-(2-(trifluoromethyl)-5,6-dihydroimidazo[1,2-a]pyrazin-7(8H)-yl)pyrimidin-4(3H)-one] to `O=c1[nH]c(N2CCN(c3ccc(C(F)(F)F)cn3)CC2)nc(N[C@@H]2CCCNC2)c1-c1nc2ccccc2s1` [Example 135, (R)-5-(benzo[d]thiazol-2-yl)-6-(piperidin-3-ylamino)-2-(4-(5-(trifluoromethyl)pyridin-2-yl)piperazin-1-yl)pyrimidin-4(3H)-one], the IC50 falls from 0.113 µM to 0.011 µM (10-fold). The second is the more potent here.

First: COC1(C)CN(c2nc(N[C@@H]3CCCNC3)c(-c3ccc4ccccc4n3)c(=O)[nH]2)C1 [Example 176, (R)-2-(3-methoxy-3-methylazetidin-1-yl)-6-(piperidin-3-ylamino)-5-(quinolin-2-yl)pyrimidin-4(3H)-one]
Second: CN(C)[C@H]1CCN(c2nc(N[C@@H]3CCCNC3)c(-c3ccc4ccccc4n3)c(=O)[nH]2)C1 [Example 166, 2-((S)-3-(dimethylamino)pyrrolidin-1-yl)-6-((R)-piperidin-3-ylamino)-5-(quinolin-2-yl)pyrimidin-4(3H)-one]
The IC50 of the first is 7.2-fold lower: 0.022 µM for the first, 0.158 µM for the second. The first is the more potent here.

`O=c1[nH]c(N2CCN(c3ncc(C(F)(F)F)cc3Cl)CC2)nc(N[C@@H]2CCCNC2)c1-c1nc2ccccc2s1` [Example 133, (R)-5-(benzo[d]thiazol-2-yl)-2-(4-(3-chloro-5-(trifluoromethyl)pyridin-2-yl)piperazin-1-yl)-6-(piperidin-3-ylamino)pyrimidin-4(3H)-one] was tested, and the IC50 was 0.017 µM.

same assay, conditions: unit inferred; 100 μM ATP; read-out: IRAK4 IC50

Going from `CN1CCC2(CCN(c3nc(N[C@@H]4C[C@H](CO)[C@@H](O)[C@H]4O)c(-c4nc5ccccc5s4)c(=O)[nH]3)CC2)C1=O` [Example 66, 8-(5-(benzo[d]thiazol-2-yl)-4-((1R,2S,3R,4R)-2,3-dihydroxy-4-(hydroxymethyl)cyclopentylamino)-6-oxo-1,6-dihydropyrimidin-2-yl)-2-methyl-2,8-diazaspiro[4.5]decan-1-one] to `CS(=O)(=O)N1CCCN(c2nc(N[C@@H]3C[C@H](CO)[C@@H](O)[C@H]3O)c(-c3nc4ccccc4s3)c(=O)[nH]2)CC1` [Example 77, 5-(benzo[d]thiazol-2-yl)-6-((1R,2S,3R,4R)-2,3-dihydroxy-4-(hydroxymethyl)cyclopentylamino)-2-(4-(methylsulfonyl)-1,4-diazepan-1-yl)pyrimidin-4(3H)-one], the IC50 rises from 0.0088 µM to 0.225 µM (26-fold).

Reference: patent publication US9221809B2 (MERCK SHARP & DOHME CORP., priority 2011, dated 2015)
